Tests used:
[1] = tested on: Mycobacterium tuberculosis Erdman (autoluminescent); experiment: GRinf, maximum normalised growth rate inhibition (three-drug combination) (unitless (-1 to 1)); higher = less effect (negative = killing)
Procedure: (§1)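 DiaMOND equipotent three-drug combination dose responses (10 doses, 1.5- or 2-fold spacing, centred on IC90) against autoluminescent M. tuberculosis Erdman in 8 in vitro models. Read-out is OD600, or luminescence for the intracellular and dormancy models, normalised to untreated wells. Hill-fit Einf, AUC25 and GRinf are potency metrics; FIC50 and FIC90 are total Loewe fractional inhibitory concentrations as log2 (negative = synergy).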

[2] = tested on: Mycobacterium tuberculosis Erdman (autoluminescent); experiment: Einf, fitted maximum growth inhibition of three-drug combination (fraction); higher = stronger maximal inhibition
Procedure: as §1

[3] = tested on: Mycobacterium tuberculosis Erdman (autoluminescent); experiment: AUC25, normalised area under dose response up to IC25 (three-drug combination) (fraction (0-1)); higher = more potent at low dose
Procedure: as §1

[4] = tested on: Mycobacterium tuberculosis Erdman (autoluminescent); experiment: total FIC90 (Loewe) at 90% inhibition, three-drug combination (log2); higher = more antagonistic
Procedure: as §1

[5] = tested on: Mycobacterium tuberculosis Erdman (autoluminescent); experiment: total FIC50 (Loewe) at 50% inhibition, three-drug combination (log2); higher = more antagonistic
Procedure: as §1

COc1nc2ccc(Br)cc2cc1[C@@H](c1ccccc1)[C@@](O)(CCN(C)C)c1cccc2ccccc12 [bedaquiline] + NNC(=O)c1ccncc1 [isoniazid] + COc1c(N2C[C@@H]3CCCN[C@@H]3C2)c(F)cc2c(=O)c(C(=O)O)cn(C3CC3)c12 [moxifloxacin]
Settings | AUC25, [3] | Einf, [2] | GRinf, [1] | total FIC50, [5] | total FIC90, [4]
in vitro model: acidic pH 5.7, time point: constant (~7 days, model-specific) | 0.098 | 0.7 | -0.325 | 0.527 | –
in vitro model: acidic pH 5.7, time point: terminal (~4-5 doublings, model-specific) | 0.0943 | 0.958 | -0.313 | 0.604 | 0.776
in vitro model: intracellular J774, time point: constant = terminal | – | 0.972 | -0.784 | – | 1.2

Settings | AUC25, [3] | Einf, [2] | GRinf, [1] | total FIC50, [5] | total FIC90, [4]
in vitro model: butyrate, time point: constant (~7 days, model-specific) | 0.0762 | 0.94 | -0.0717 | 0.776 | 0.906
in vitro model: butyrate, time point: terminal (~4-5 doublings, model-specific) | 0.0478 | 0.973 | -0.0805 | 0.672 | 0.575
in vitro model: cholesterol 0.05 mM, time point: constant (~7 days, model-specific) | 0.0995 | 0.742 | -0.202 | 0.612 | –
in vitro model: cholesterol 0.05 mM, time point: terminal (~4-5 doublings, model-specific) | 0.0886 | 0.923 | -0.178 | 0.549 | -0.479
in vitro model: cholesterol-high 0.2 mM, time point: constant (~7 days, model-specific) | 0.0861 | 0.952 | -0.436 | 0.394 | 0.57
in vitro model: cholesterol-high 0.2 mM, time point: terminal (~4-5 doublings, model-specific) | 0.0461 | 0.991 | -0.601 | 0.581 | 0.234
in vitro model: dormancy (butyrate + nitrate, low O2), time point: constant (~7 days, model-specific) | 0.0686 | 0.938 | 0.161 | 0.895 | 0.336
in vitro model: dormancy (butyrate + nitrate, low O2), time point: terminal (~4-5 doublings, model-specific) | 0.0705 | 0.997 | -0.252 | 0.646 | 0.782
in vitro model: standard 7H9 glycerol, time point: constant = terminal | 0.0816 | 0.987 | -0.154 | 0.375 | 0.614
in vitro model: valerate, time point: constant (~7 days, model-specific) | 0.1 | 0.925 | -0.134 | 0.901 | –
in vitro model: valerate, time point: terminal (~4-5 doublings, model-specific) | 0.067 | 0.949 | -0.0225 | 0.672 | 1.33

COc1nc2ccc(Br)cc2cc1[C@@H](c1ccccc1)[C@@](O)(CCN(C)C)c1cccc2ccccc12 [bedaquiline] + NNC(=O)c1ccncc1 [isoniazid] + NC(=O)c1cnccn1 [pyrazinamide]
Settings | AUC25, [3] | Einf, [2] | GRinf, [1] | total FIC50, [5] | total FIC90, [4]
in vitro model: acidic pH 5.7, time point: constant (~7 days, model-specific) | 0.0904 | 0.873 | -0.529 | 0.0123 | –
in vitro model: acidic pH 5.7, time point: terminal (~4-5 doublings, model-specific) | 0.0797 | 0.981 | -0.413 | 0.0722 | 0.15
in vitro model: intracellular J774, time point: constant = terminal | – | 0.987 | -0.53 | – | 0.651

Settings | AUC25, [3] | Einf, [2] | GRinf, [1] | total FIC50, [5] | total FIC90, [4]
in vitro model: butyrate, time point: constant (~7 days, model-specific) | 0.0809 | 0.949 | -0.109 | 0.406 | 0.726
in vitro model: butyrate, time point: terminal (~4-5 doublings, model-specific) | 0.0598 | 0.978 | -0.0731 | 0.373 | 0.404
in vitro model: cholesterol 0.05 mM, time point: constant (~7 days, model-specific) | 0.103 | 0.726 | -0.236 | – | –
in vitro model: cholesterol 0.05 mM, time point: terminal (~4-5 doublings, model-specific) | 0.102 | 0.935 | -0.279 | 0.232 | –
in vitro model: cholesterol-high 0.2 mM, time point: constant (~7 days, model-specific) | 0.0921 | 0.995 | -0.637 | 0.548 | –
in vitro model: cholesterol-high 0.2 mM, time point: terminal (~4-5 doublings, model-specific) | 0.068 | 1 | -0.598 | 0.805 | 0.505
in vitro model: dormancy (butyrate + nitrate, low O2), time point: constant (~7 days, model-specific) | 0.0789 | 0.922 | 0.125 | -0.318 | -0.645
in vitro model: dormancy (butyrate + nitrate, low O2), time point: terminal (~4-5 doublings, model-specific) | 0.0524 | 0.992 | -0.123 | 0.063 | -0.625
in vitro model: standard 7H9 glycerol, time point: constant = terminal | 0.0575 | 0.957 | -0.0565 | 0.231 | –
in vitro model: valerate, time point: constant (~7 days, model-specific) | 0.0999 | 0.847 | 0.0396 | 0.527 | –
in vitro model: valerate, time point: terminal (~4-5 doublings, model-specific) | 0.0629 | 0.953 | -0.0326 | 0.64 | 1.01

COc1nc2ccc(Br)cc2cc1[C@@H](c1ccccc1)[C@@](O)(CCN(C)C)c1cccc2ccccc12 [bedaquiline] + NNC(=O)c1ccncc1 [isoniazid] + O=[N+]([O-])c1cn2c(n1)OC[C@@H](OCc1ccc(OC(F)(F)F)cc1)C2 [pretomanid]
Settings | AUC25, [3] | Einf, [2] | GRinf, [1] | total FIC50, [5] | total FIC90, [4]
in vitro model: acidic pH 5.7, time point: constant (~7 days, model-specific) | 0.13 | 0.923 | -0.789 | 0.219 | –
in vitro model: acidic pH 5.7, time point: terminal (~4-5 doublings, model-specific) | 0.108 | 0.988 | -0.439 | 0.209 | 0.765
in vitro model: intracellular J774, time point: constant = terminal | – | 0.996 | -0.588 | – | 0.892

Settings | AUC25, [3] | Einf, [2] | GRinf, [1] | total FIC50, [5] | total FIC90, [4]
in vitro model: butyrate, time point: constant (~7 days, model-specific) | 0.0753 | 0.947 | -0.112 | 1.04 | 1.16
in vitro model: butyrate, time point: terminal (~4-5 doublings, model-specific) | 0.0523 | 0.975 | -0.0872 | 0.897 | 0.889
in vitro model: cholesterol 0.05 mM, time point: constant (~7 days, model-specific) | 0.0895 | 0.722 | -0.21 | 0.775 | –
in vitro model: cholesterol 0.05 mM, time point: terminal (~4-5 doublings, model-specific) | 0.0672 | 0.924 | -0.246 | 6.17 | 0.608
in vitro model: cholesterol-high 0.2 mM, time point: constant (~7 days, model-specific) | 0.0717 | 0.887 | -0.196 | 0.37 | –
in vitro model: cholesterol-high 0.2 mM, time point: terminal (~4-5 doublings, model-specific) | 0.0327 | 0.992 | -0.535 | 0.584 | 0.0623
in vitro model: dormancy (butyrate + nitrate, low O2), time point: constant (~7 days, model-specific) | 0.0674 | 0.924 | 0.224 | -0.188 | -0.985
in vitro model: dormancy (butyrate + nitrate, low O2), time point: terminal (~4-5 doublings, model-specific) | 0.0671 | 0.994 | -0.159 | -0.769 | -0.523
in vitro model: standard 7H9 glycerol, time point: constant = terminal | 0.0757 | 0.966 | -0.103 | 0.177 | 0.0648
in vitro model: valerate, time point: constant (~7 days, model-specific) | 0.129 | 0.886 | -0.333 | 0.632 | 1.13
in vitro model: valerate, time point: terminal (~4-5 doublings, model-specific) | 0.109 | 0.953 | -0.161 | 0.661 | 1.97
